One data set relates to Aβ42. In words: In vivo efficacy: brain soluble Aβ42 in non-transgenic rodents (ELISA). Conditions: Mus musculus, dose 30 mg/kg oral dosing, brain soluble fraction, animals sacrificed after 4 h, untreated animals (Ctrl) set at 100, read-out: Aβ42 (% vs Ctrl)_Mean. From the text:
(§1) To determine whether acute administration of an Aβ42 lowering agent would reduce Aβ42 levels in vivo, non-transgenic rodents, e.g. mice or rats were used. Animals treated with the Aβ42 lowering agent were examined and compared to those untreated or treated with vehicle and brain levels of soluble Aβ42 and total Aβ were quantitated by standard techniques, for example, using ELISA. Treatment periods varied from hours (h) to days and were adjusted based on the results of the Aβ42 lowering once a time course of onset of effect could be established.
(§2) A typical protocol for measuring Aβ42 lowering in vivo is shown but it is only one of many variations that could be used to optimize the levels of detectable Aβ. For example, Aβ42 lowering compounds were formulated in 20% of Captisol® (a sulfobutyl ether of β-cyclodextrin) in water or 20% hydroxypropyl β cyclodextrin. The Aβ42 lowering agents were administered as a single oral dose or by any acceptable route of administration to overnight fasted animals. After 4 h, the animals were sacrificed and Aβ42 levels were analysed.
(§3) Blood was collected by decapitation and exsanguinations in EDTA-treated collection tubes. Blood was centrifuged at 1900 g for 10 minutes (min) at 4° C. and the plasma recovered and flash frozen for later analysis. The brain was removed from the cranium and hindbrain. The cerebellum was removed and the left and right hemisphere were separated. The left hemisphere was stored at −18° C. for quantitative analysis of test compound levels. The right hemisphere was rinsed with phosphate-buffered saline (PBS) buffer and immediately frozen on dry ice and stored at −80° C. until homogenization for biochemical assays.
(§4) Mouse brains from non-transgenic animals were resuspended in 8 volumes of 0.4% DEA (diethylamine)/50 mM NaCl containing protease inhibitors (Roche-11873580001 or 04693159001) per gram of tissue, e.g. for 0.158 g brain, add 1.264 ml of 0.4% DEA. All samples were homogenized in the FastPrep-24 system (MP Biomedicals) using lysing matrix D (MPBio #6913-100) at 6 m/s for 20 seconds. Homogenates were centrifuged at 221.300×g for 50 min. The resulting high speed supernatants were then transferred to fresh eppendorf tubes. Nine parts of supernatant were neutralized with 1 part 0.5 M Tris-HCl pH 6.8 and used to quantify Aβtotal and Aβ42.
(§5) To quantify the amount of Aβtotal and Aβ42 in the soluble fraction of the brain homogenates, Enzyme-Linked-Immunosorbent-Assays were used. Briefly, the standards (a dilution of synthetic Aβ1-40 and Aβ1-42, Bachem) were prepared in 1.5 ml Eppendorf tube in Ultraculture, with final concentrations ranging from 10000 to 0.3 pg/ml. The samples and standards were co-incubated with HRPO-labelled N-terminal antibody for Aβ42 detection and with the biotinylated mid-domain antibody 4G8 for Aβtotal detection. 50 μl of conjugate/sample or conjugate/standards mixtures were then added to the antibody-coated plate (the capture antibodies selectively recognize the C-terminal end of Aβ42, antibody JRF/cAβ42/26, for Aβ42 detection and the N-terminus of Aβ, antibody JRF/rAβ/2, for Aβtotal detection). The plate was allowed to incubate overnight at 4° C. in order to allow formation of the antibody-amyloid complex. Following this incubation and subsequent wash steps the ELISA for Aβ42 quantification was finished by addition of Quanta Blu fluorogenic peroxidase substrate according to the manufacturer's instructions (Pierce Corp., Rockford, Ill.). A reading was performed after 10 to 15 min (excitation 320 nm/emission 420 nm).
In this model a Aβ42 lowering compared to untreated animals would be advantageous, in particular a Aβ42 lowering with at least 10%, more in particular a Aβ42 lowering with at least 20%.
The results are shown in Table 4 (dose 30 mg/kg oral dosing) (value for untreated animals as control (Ctrl) was set at 100): […]
For orientation: An ELISA detects its analyte on a solid surface through an enzyme-linked reagent.

In a further data set the test system is Aβtotal. Nature of the data set: In vivo efficacy: brain soluble Aβtotal in non-transgenic rodents (ELISA). The note with it: Mus musculus, dose 30 mg/kg oral dosing, brain soluble fraction, animals sacrificed after 4 h, untreated animals (Ctrl) set at 100, read-out: Aβtotal (% vs Ctrl)_Mean.
Source text: as §1, §2, §3, §4, §5
For Aβtotal detection, a Streptavidine-Peroxidase-Conjugate was added, followed 60 min later by an additional wash step and addition of Quanta Blu fluorogenic peroxidase substrate according to the manufacturer's instructions (Pierce Corp., Rockford, Ill.). A reading was performed after 10 to 15 min (excitation 320 nm/emission 420 nm). […]

For `Cc1cn(-c2ccc3n(c2=O)C[C@@H](C)N(CCc2cc(C(F)(F)F)cc(C(F)(F)F)c2)C3=O)cn1` [compound 50], the response vs control in vivo at 30 mg/kg in the data set with Aβ42 is 88%; in the data set on Aβtotal, 91%.

Take `Cc1cn(-c2ccc3n(c2=O)C[C@@H](C)N(Cc2ccc(Cl)c(C(F)(F)F)c2)C3=O)cn1` [compound 62]: the response vs control in vivo at 30 mg/kg stood at 68% in the data set on Aβ42 and 98% in the data set with Aβtotal.

Broadly, the melting point is the temperature, or range, at which the solid turns liquid. The compound `Cc1cn(-c2ccc3n(c2=O)CC(C)N(C(C)c2cc(C(F)(F)F)cc(C(F)(F)F)c2)C3=O)cn1.Cl` (single isomer, unassigned) [compound 112] came in with a melting point of 259 °C.

Compound `Cc1cn(-c2cc(F)c3n(c2=O)C[C@@H](C)N(Cc2cc(C(F)(F)F)cc(C(F)(F)F)c2)C3=O)cn1` [compound 158] displayed a melting point of 137.1 °C.

In the case of `Cc1cn(-c2ccc3n(c2=O)C[C@@H](C)N(Cc2cc(N4CCCC4)ccc2Cl)C3=O)cn1` [compound 82], the results for the response vs control in vivo at 30 mg/kg in the data set with Aβ42 and with Aβtotal were 78% and 125%, respectively.

On to `Cc1cn(-c2ccc3n(c2=O)C[C@@H](C)N(Cc2cc(Cl)cc(C(F)(F)F)c2)C3=O)cn1` [compound 63], for which the melting point turned out to be 180.4 °C. Besides, in the data set on Aβ42, the response vs control in vivo at 30 mg/kg turned out to be 82%. In the data set with Aβtotal, the response vs control in vivo at 30 mg/kg turned out to be 124%.

Take `Cc1cn(-c2ccc3n(c2=O)C[C@@H](C)N(Cc2ccc(C(F)(F)F)c(C(F)(F)F)c2)C3=O)cn1` [compound 46]: the melting point was 145.6 °C. For the same compound, the response vs control in vivo at 30 mg/kg with Aβ42 amounted to 60%. The response vs control in vivo at 30 mg/kg with Aβtotal was 87%.

For `C[C@@H]1Cn2c(ccc(-n3cnc(Cl)c3)c2=O)C(=O)N1Cc1cc(C(F)(F)F)cc(C(F)(F)F)c1` [compound 118], the melting point was found to be 157.9 °C.

As to `Cc1cn(-c2ccc3n(c2=O)C[C@@H](C)N(Cc2ccc(F)c(F)c2)C3=O)cn1` [compound 133], the melting point was 198.1 °C.

Regarding `Cc1cn(-c2ccc3n(c2=O)CCN(C(C)c2cccc(Cl)c2Cl)C3=O)cn1` (single isomer, unassigned) [10a], the melting point was found to be 203.8 °C. Moreover, in the data set with Aβ42, the response vs control in vivo at 30 mg/kg was 87%. The response vs control in vivo at 30 mg/kg in the data set on Aβtotal was found to be 118%.

Regarding `Cc1cn(-c2ccc3n(c2=O)CCN(Cc2ccc(C)c(N4CCCCC4)c2)C3=O)cn1` [compound 99], the results for the response vs control in vivo at 30 mg/kg in the data set on Aβ42 and with Aβtotal were 111% and 113%, respectively.

In the case of `Cc1cn(-c2ccc3n(c2=O)CCN(Cc2ccc(Cl)c(C(F)(F)F)c2)C3=O)cn1` [compound 65], the melting point was 195.1 °C. Besides, in the data set on Aβ42, the response vs control in vivo at 30 mg/kg was 104%. Further, in the data set on Aβtotal, the response vs control in vivo at 30 mg/kg was 114%.

On to `Cc1cn(-c2ccc3n(c2=O)C[C@@H](C)N(Cc2cccc(C(C)(C)C)c2)C3=O)cn1` [compound 23], for which the response vs control in vivo at 30 mg/kg with Aβ42 and in the data set on Aβtotal was 122% throughout.

Turning to `Cc1cn(-c2ccc3n(c2=O)CC(C)N(Cc2cc(OCC4CC4)cc(C(F)(F)F)c2)C3=O)cn1.Cl` (centres unmarked) [compound 6], the melting point is 175.4 °C. The response vs control in vivo at 30 mg/kg in the data set on Aβ42 came to 85%. The response vs control in vivo at 30 mg/kg with Aβtotal is 102%.

As to `Cc1cn(-c2ccc3n(c2=O)C[C@@H](C)N(Cc2ccc(Cl)c(Cl)c2)C3=O)cn1` [compound 2], the melting point was 185 °C. The response vs control in vivo at 30 mg/kg with Aβ42 worked out at 82%. Further, the response vs control in vivo at 30 mg/kg with Aβtotal was 100%.

For `Cc1cc(CN2C(=O)c3ccc(-n4cnc(C)c4)c(=O)n3C[C@H]2C)cc(C(F)(F)F)c1` [compound 59], the melting point is 167.7 °C. Besides, in the data set with Aβ42, the response vs control in vivo at 30 mg/kg stood at 82%. The response vs control in vivo at 30 mg/kg in the data set with Aβtotal is 126%.

In the case of `Cc1cn(-c2ccc3n(c2=O)CC(C)N(Cc2cc(C(F)(F)F)cc(C(F)(F)F)c2)C3=O)cn1` (centres unmarked) [compound 3], the melting point was 176.6 °C. Besides, in the data set on Aβ42, the response vs control in vivo at 30 mg/kg is 55%. The response vs control in vivo at 30 mg/kg in the data set with Aβtotal turned out to be 98%.

The compound `Cc1cn(-c2ccc3n(c2=O)CCN(Cc2cccc(-c4ccccc4)c2)C3=O)cn1` [compound 5] had a melting point of 165.6 °C. Moreover, in the data set on Aβ42, the response vs control in vivo at 30 mg/kg came to 78%. Further, the response vs control in vivo at 30 mg/kg in the data set on Aβtotal worked out at 87%.

`Cc1cn(-c2ccc3n(c2=O)CC(C)N(C(C)c2cc(C(F)(F)F)cc(C(F)(F)F)c2)C3=O)cn1.Cl` (single isomer, unassigned) [compound 111] came in with a melting point of 147.3 °C.

`Cc1cn(-c2ccc3n(c2=O)CC(C)N(C(C)c2c[nH]c4c(F)cc(Cl)cc24)C3=O)cn1` (single isomer, unassigned) [compound 219] displayed a melting point of 263 °C.

`Cc1cn(-c2ccc3n(c2=O)CC(C)N(C(C)c2cn(C)c4cc(F)c(Cl)cc24)C3=O)cn1` (single isomer, unassigned) [compound 189] returned a melting point of 263 °C.

In turn, `Cc1cn(-c2ccc3n(c2=O)CCN(Cc2ccccc2C)C3=O)cn1` [compound 22] came in with a melting point of 186.1 °C. Also, in the data set on Aβ42, the response vs control in vivo at 30 mg/kg turned out to be 106%. Further, in the data set on Aβtotal, the response vs control in vivo at 30 mg/kg was 92%.

`CCC1Cn2c(ccc(-n3cnc(C)c3)c2=O)C(=O)N1Cc1cc(C(F)(F)F)cc(C(F)(F)F)c1.Cl` (centres unmarked) [compound 1] returned a melting point of 203.6 °C. The response vs control in vivo at 30 mg/kg in the data set with Aβ42 worked out at 61%. Also, the response vs control in vivo at 30 mg/kg with Aβtotal amounted to 89%.

For `Cc1cn(-c2ccc3n(c2=O)C[C@@H](C)N(Cc2cc(N4CCC(C)CC4)ccc2Cl)C3=O)cn1` [compound 80], the response vs control in vivo at 30 mg/kg with Aβ42 and in the data set on Aβtotal was 119% throughout.

Compound `Cc1cn(-c2ccc3n(c2=O)CCN(C(C)c2cn(C)c4cc(F)c(Cl)cc24)C3=O)cn1` (single isomer, unassigned) [compound 185] registered a melting point of 258 °C.

`CCc1cn(-c2ccc3n(c2=O)CC(C)N(Cc2cc(C(F)(F)F)cc(C(F)(F)F)c2)C3=O)cn1.Cl` (centres unmarked) [compound 7] gave a melting point of 290 °C. Also, the response vs control in vivo at 30 mg/kg in the data set with Aβ42 is 73%. Also, the response vs control in vivo at 30 mg/kg with Aβtotal turned out to be 94%.

(Values after patent publication US20150141411A1, “SUBSTITUTED 3,4-DIHYDRO-2H-PYRIDO[1,2-A]PYRAZINE-1,6-DIONE DERIVATIVES USEFUL FOR THE TREATMENT OF (INTER ALIA) ALZHEIMER'S DISEASE” (Janssen Pharmaceuticals, Inc., priority 2012, published 2015).)
